Measured values from patent publication US20260347319A1, “YAP/TAZ-TEAD ONCOPROTEINS INHIBITORS” (BridGene Biosciences, Inc., priority 2022, published 2026).
Read-outs that look alike come from different tables or passages of the source.

Legend:
Assay type in all cases: cell-based
TEAD1 [1] = assay: MCF-7 TEAD1-luciferase reporter assay (MCF7-TEAD-Luc); details: MCF7 cells, overnight; for IC50: Homo sapiens; for TEAD1-Luc MCF7: Max Inhibition: % of DMSO-treated control
How it was run: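 MCF7 cells with a TEAD luciferase reporter were seeded at 10,000 per well, grown 24 hours at 37° C, then treated overnight with serially diluted compound. Luciferase signal was normalized as % inhibition relative to DMSO controls, and IC50 came from a four-parameter fit.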

NCI-H226 cells [2] = assay: Cell proliferation and viability assay (CPA) in NCI-H226 cells; details: up to 6 d; for IC50: Homo sapiens, 144 h, read-out: CPA NCI-H226 IC50 Ave
Description: Compound potency and efficacy in inhibiting cell proliferation and viability was assessed in multiple cell lines. For example, NCI-H226 cells (ATCC #CRL-5826) were seeded at 2000 cells in 200 μL medium per well of a 96-well plate (Corning #3610) and incubated at 37° C. for 24 hours, then treated with serial diluted compounds for up to 6 d. Viable cells were measured by CellTiter-Glo 2.0 Cell Viability Assay (Promega #G9243), and the luminescence signal was read using an EnSight Multimode plate reader (PerkinElmer, model 9MLDHH34000000, integration time 100 ms) with Kaleido 3.0. software. For data analysis, dose-dependent curves were plotted as “inhibition” (% of DMSO-treated control wells), and were fitted by four-parametric model in GraphPad Prism to obtain IC50 values. […]

H2052 cells = assay: Cell proliferation and viability assay (CPA) in H2052 cells; details: for IC50: Homo sapiens, NCI-H2052, read-out: CPA H2052 IC50 Ave
Description: (§1) Compound potency and efficacy in inhibiting cell proliferation and viability was assessed in multiple cell lines. For example, NCI-H226 cells (ATCC #CRL-5826) were seeded at 2000 cells in 200 μL medium per well of a 96-well plate (Corning #3610) and incubated at 37° C. for 24 hours, then treated with serial diluted compounds for up to 6 d. Viable cells were measured by CellTiter-Glo 2.0 Cell Viability Assay (Promega #G9243), and the luminescence signal was read using an EnSight Multimode plate reader (PerkinElmer, model 9MLDHH34000000, integration time 100 ms) with Kaleido 3.0. software. For data analysis, dose-dependent curves were plotted as “inhibition” (% of DMSO-treated control wells), and were fitted by four-parametric model in GraphPad Prism to obtain IC50 values.
(§2) Alternatively, cells were plated at 2000 cells in 200 μL medium per well of a 96-well plate (Corning #3585) overnight, treated with compound for 7 days, cell density images taken by Incycte S3 live cell analysis instrument (Sartorius) every 24 hours at the same time. Images were analyzed by Incucyte's AI-driven software to get C “% confluence” for every image. Dose-dependent curves were plotted as “% inhibition” (% o of DMSO-treated control wells) and were fitted by four-parametric model in GraphPad Prism to obtain IC50 values.

TEAD1 [3] = assay: Palmitoylation assay, TEAD1 (HEK293T cells); details: 3 um compound, 24 hours
Description: (§3) Tagged TEAD constructs were cloned in pTriEx-6 (Novagen #71559) and transiently transfected into HEK293T cells for 24 hours. Then cells were treated with compounds for 24 hours, or treated with compounds plus 25 μM alkyne palmitic acid (for palmitoylation assay), and cell pellets were collected. Cells were lysed in lysis Buffer (100 mM Tris-HCl, 150 mM NaCl, 1% Triton, 5 mg/mL protease inhibitor cocktail), centrifuged for 10 min at 15000 g, TEAD proteins were pulled down and subjected to click-chemistry with TAMRA azide (Click Chemistry Tools #AZ109) to label compound-modified protein. Protein bands were separated by SDS-gel electrophoresis, target bands at expected molecular size were visualized using BioRad ChemiDoc Imaging system, band intensities were quantified by Image Studio.

TEAD2 [4] = biological target: T1, TEAD2 (Homo sapiens, UniProt Q15562); assay: Palmitoylation assay, TEAD2 (HEK293T cells); set-up: unspecified tag; expressed in transfected cells; host or cells: HEK293T; details: 3 um compound, 24 hours
T1 sequence (Q15562 whole entry): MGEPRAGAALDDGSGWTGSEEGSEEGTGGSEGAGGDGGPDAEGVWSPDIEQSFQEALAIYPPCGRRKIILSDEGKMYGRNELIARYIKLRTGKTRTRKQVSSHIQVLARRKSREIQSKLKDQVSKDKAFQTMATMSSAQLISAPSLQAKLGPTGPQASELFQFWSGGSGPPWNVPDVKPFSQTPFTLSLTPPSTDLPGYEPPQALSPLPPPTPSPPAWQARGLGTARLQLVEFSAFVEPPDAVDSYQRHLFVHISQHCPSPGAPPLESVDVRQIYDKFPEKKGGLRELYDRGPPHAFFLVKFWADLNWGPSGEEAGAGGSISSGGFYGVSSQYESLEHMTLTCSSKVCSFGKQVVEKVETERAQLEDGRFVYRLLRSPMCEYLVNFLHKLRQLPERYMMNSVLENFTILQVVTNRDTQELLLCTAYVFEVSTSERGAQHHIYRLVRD
Description: as §3

TEAD3 [5] = biological target: T2, TEAD3 (Homo sapiens, UniProt Q99594); assay: Palmitoylation assay, TEAD3 (HEK293T cells); set-up: unspecified tag; expressed in transfected cells; host or cells: HEK293T; details: 3 um compound, 24 hours
Description: as §3
Target sequence in this assay (Q99594 whole entry): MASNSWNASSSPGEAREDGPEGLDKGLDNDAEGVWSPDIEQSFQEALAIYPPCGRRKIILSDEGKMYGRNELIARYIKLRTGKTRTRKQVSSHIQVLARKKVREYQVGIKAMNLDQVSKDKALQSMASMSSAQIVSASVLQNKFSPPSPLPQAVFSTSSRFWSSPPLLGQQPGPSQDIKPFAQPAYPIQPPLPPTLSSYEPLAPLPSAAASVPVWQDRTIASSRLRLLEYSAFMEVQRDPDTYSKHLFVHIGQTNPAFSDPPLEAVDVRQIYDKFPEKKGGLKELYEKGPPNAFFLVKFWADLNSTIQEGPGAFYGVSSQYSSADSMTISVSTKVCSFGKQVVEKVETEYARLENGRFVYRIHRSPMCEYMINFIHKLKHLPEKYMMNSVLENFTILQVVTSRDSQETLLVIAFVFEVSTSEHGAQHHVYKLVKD

TEAD4 = TEAD4 (Homo sapiens, UniProt Q15561); assay: Palmitoylation assay, TEAD4 (HEK293T cells); set-up: unspecified tag; expressed in transfected cells; host or cells: HEK293T; details: 3 um compound, 24 hours
Sequence of TEAD4 (Q15561 whole entry): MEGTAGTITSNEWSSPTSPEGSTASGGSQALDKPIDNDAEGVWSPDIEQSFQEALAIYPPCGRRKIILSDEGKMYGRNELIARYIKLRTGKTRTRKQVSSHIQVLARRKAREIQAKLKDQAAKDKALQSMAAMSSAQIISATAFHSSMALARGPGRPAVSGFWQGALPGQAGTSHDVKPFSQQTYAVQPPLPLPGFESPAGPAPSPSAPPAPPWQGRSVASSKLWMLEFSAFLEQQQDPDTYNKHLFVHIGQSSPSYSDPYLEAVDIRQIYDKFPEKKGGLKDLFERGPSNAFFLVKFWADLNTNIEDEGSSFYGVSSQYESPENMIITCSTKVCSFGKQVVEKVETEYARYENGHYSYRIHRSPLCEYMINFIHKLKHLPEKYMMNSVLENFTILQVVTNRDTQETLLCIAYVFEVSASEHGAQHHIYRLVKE
Description: as §3

TEAD1 [6] = assay: ELISA assay in H226 cells, TEAD1; details: Homo sapiens, NCI-H226, overnight
Description: (§4) ELISA: 750k cells were plated per well of 6-well plate for 24 hours, treated with compounds overnight, cells were then lysed in lysis Buffer with 5 mg/mL protease inhibitor (Cell Signaling #9803), centrifuged at 12000 g for 5 min. Cell lysates were normalized to 2 mg/mL for subsequent assays. A 96-well assay plate (Corning #3690) was coated with TEAD antibodies (anti-TEAD1: Cell Signaling #12292, 1:100; anti-TEAD2: LSBio #LS-C101693-100, 1:50; anti-TEAD3: Abcam #ab75192, 1:100; anti-TEAD4: Abcam #ab58310, 1:400) overnight at 4° C. Plates were washed with TBST (Thermo Fisher #28360) for 3 times, blocked in 100 μL blocking buffer (2% BSA-TBST, Sigma #A7030) for 1 hour at room temperature. 50 μL cell lysates were incubated overnight at 4° C. with shaking. The next day, plates were washed with TBST three times, incubated with 1:125 anti-YPA-HRP (Cell Signaling #15028S) for 4 hours at 4° C., followed by 3× washing in TBST, then incubated in HRP substrate (Thermo Fisher #34021) for 10 min at room temperature, reaction was stopped by TMB stop solution (Thermo Fisher #N600). Signal was read at wavelength 450 nm.

NCI-H226 cells [7] = assay: Cell proliferation and viability assay (CPA) in NCI-H226 cells; details: up to 6 d; for IC50: Homo sapiens, 144 h, read-out: CPA NCI-H226 IC50 Ave; remark: listed apart in the source
Description: as §1, §2

TEAD2 [8] = biological target: T1, TEAD2; assay: ELISA assay in H226 cells, TEAD2; set-up: endogenous in cells; host or cells: H226
Description: as §4

TEAD3 [9] = biological target: T2, TEAD3; assay: ELISA assay in H226 cells, TEAD3; set-up: endogenous in cells; host or cells: H226
Description: as §4
Target sequence in this assay (Q99594 2-435 limits assumed): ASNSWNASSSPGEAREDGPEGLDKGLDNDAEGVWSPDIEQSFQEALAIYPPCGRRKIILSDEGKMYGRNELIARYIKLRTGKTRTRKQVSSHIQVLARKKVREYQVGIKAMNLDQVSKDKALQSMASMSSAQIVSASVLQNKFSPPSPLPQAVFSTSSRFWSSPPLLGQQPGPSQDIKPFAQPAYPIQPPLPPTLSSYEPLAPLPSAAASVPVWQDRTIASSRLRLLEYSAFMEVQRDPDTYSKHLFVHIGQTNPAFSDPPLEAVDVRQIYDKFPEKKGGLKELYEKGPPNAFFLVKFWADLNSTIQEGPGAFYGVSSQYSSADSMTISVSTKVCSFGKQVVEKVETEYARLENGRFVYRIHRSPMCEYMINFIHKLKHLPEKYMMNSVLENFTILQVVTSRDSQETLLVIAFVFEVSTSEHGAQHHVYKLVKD

IC50 (TEAD1 [1]) [nM] | IC50 (NCI-H226 cells [2]) [nM] | IC50 (H2052 cells) [nM] | TEAD2 Inh (palmitoylation) (TEAD2 [4]) [%] | TEAD3 Inh (palmitoylation) (TEAD3 [5]) [%] | TEAD4 Inh (palmitoylation) (TEAD4) [%] | IC50 (TEAD1 [6]) [nM] | IC50 (NCI-H226 cells [7]) [nM] | IC50 (TEAD2 [8]) [nM] | IC50 (TEAD3 [9]) [nM] | Structure (SMILES) | TEAD1-Luc MCF7: Max Inhibition (TEAD1 [1]) | CPA NCI-H226 Max Inh Ave (NCI-H226 cells [2]) | CPA H2052 Max Inh Ave (H2052 cells) | TEAD1 Inh (palmitoylation) (TEAD1 [3]) [%] | CPA NCI-H226 Max Inh Ave (NCI-H226 cells [7])
10 to 100 | ≤ 100 | ≤ 100 |  |  |  |  |  |  |  | C=CC(=O)N1CC[C@](C)(C#Cc2ccc(C(F)(F)F)cc2)C1 (single isomer, unassigned) [Example 60, 1-[(3R*)-3-methyl-3-{2-[4-(trifluoromethyl)phenyl]ethynyl}pyrrolidin-1-yl]prop-2-en-1-one] | A (A ≥ 75%) | A (A ≥ 75%) | A (A ≥ 75%) |  | 
10 to 100 | ≤ 100 | ≤ 100 |  |  |  |  |  |  |  | C=CC(=O)N1CC[C@@](C)(C#Cc2ccc(C(F)(F)F)cc2)C1 (single isomer, unassigned) [Example 61, 1-[(3S*)-3-methyl-3-{2-[4-(trifluoromethyl)phenyl]ethynyl}pyrrolidin-1-yl]prop-2-en-1-one] | A (A ≥ 75%) | B (75% > B ≥ 50%) | A (A ≥ 75%) |  | 
≤ 10 | ≤ 100 | ≤ 100 |  |  |  |  |  |  |  | C=CC(=O)N1CC[C@@H](C#Cc2ccc(C(F)(F)F)cc2)C1 (single isomer, unassigned) [Example 67, (S*)-1-(3-((4-(trifluoromethyl)phenyl)ethynyl)pyrrolidin-1-yl)prop-2-en-1-one] | A (A ≥ 75%) | A (A ≥ 75%) | A (A ≥ 75%) |  | 
10 to 100 |  |  | 32 | 90 | 18 |  |  |  |  | C=CC(=O)N1C[C@@H](C)[C@H](/C=C/c2ccc(C(F)(F)F)cc2)C1 (stereo in doubt) [Example 39, 1-((3S*,4S*)-3-methyl-4-((E)-4-(trifluoromethyl)styryl)pyrrolidin-1-yl)prop-2-en-1-one] | A (A ≥ 75%) |  |  | 89 | 
≤ 10 | 100 to 500 | ≤ 100 |  |  |  |  |  |  |  | C=CC(=O)N1CC(C/C=C\c2cc(C(F)(F)F)on2)C1 [Example 1, 1-{3-[(2Z)-3-[5-(trifluoromethyl)-1,2-oxazol-3-yl]prop-2-en-1-yl]azetidin-1-yl}prop-2-en-1-one] | A (A ≥ 75%) | B (75% > B ≥ 50%) | B (75% > B ≥ 50%) |  | 
≤ 10 | 100 to 500 | ≤ 100 |  |  |  |  |  |  |  | C=CC(=O)N1CC(/C=C/c2ccc(C(F)(F)F)cn2)C1 [Example 11, 1-(3-(2-(5-(trifluoromethyl)pyridin-2-yl)vinyl)azetidin-1-yl)prop-2-en-1-one] | A (A ≥ 75%) | A (A ≥ 75%) | A (A ≥ 75%) |  | 
≤ 10 | ≤ 100 | ≤ 100 |  |  |  |  |  |  |  | C=CC(=O)N1CC(/C=C/c2cnc(C(F)(F)F)s2)C1 [Example 13, 1-{3-[(E)-2-[2-(trifluoromethyl)-1,3-thiazol-5-yl]ethenyl]azetidin-1-yl}prop-2-en-1-one] | A (A ≥ 75%) | B (75% > B ≥ 50%) | B (75% > B ≥ 50%) |  | 
≤ 10 |  | ≤ 100 | 80 | 98 | 80 | 14 | 100 to 500 | 179 | 4 | C=CC(=O)N1CC(/C=C/c2ccc(C(F)(F)F)cc2)C1 [Example 15] | A (A ≥ 75%) |  | B (75% > B ≥ 50%) | 97 | B (75% > B ≥ 50%)
≤ 10 | 100 to 500 | ≤ 100 | 70 | 96 | 33 |  |  |  |  | C=CC(=O)N1CC(/C=C/c2cc(C(F)(F)F)on2)C1 [Example 21, (E)-1-(3-(2-(5-(trifluoromethyl)isoxazol-3-yl)vinyl)azetidin-1-yl)prop-2-en-1-one] | A (A ≥ 75%) | A (A ≥ 75%) | B (75% > B ≥ 50%) | 96 | 
10 to 100 | 100 to 500 | ≤ 100 |  |  |  |  |  |  |  | C=CC(=O)N1CC(C#N)(/C=C/c2cc(C(F)(F)F)on2)C1 [Example 34, 1-acryloyl-3-(2-(5-(trifluoromethyl)isoxazol-3-yl)vinyl)azetidine-3-carbonitrile] | A (A ≥ 75%) | A (A ≥ 75%) | A (A ≥ 75%) |  | 
10 to 100 | 100 to 500 | ≤ 100 |  |  |  |  |  |  |  | C=CC(=O)N1CC(/C=C/c2ccc(C(F)(F)F)cc2)C(OC)C1 (centres unmarked) [Example 36, 1-(3-methoxy-4-(4-(trifluoromethyl)styryl)pyrrolidin-1-yl)prop-2-en-1-one] | A (A ≥ 75%) | B (75% > B ≥ 50%) | B (75% > B ≥ 50%) |  | 
10 to 100 | 100 to 500 | 100 to 500 |  |  |  |  |  |  |  | C#Cc1cc(/C=C/C2CN(C(=O)C=C)C2)ccc1C(F)(F)F [Example 45, (E)-1-(3-(3-ethynyl-4-(trifluoromethyl)styryl)azetidin-1-yl)prop-2-en-1-one] | A (A ≥ 75%) | B (75% > B ≥ 50%) | B (75% > B ≥ 50%) |  | 
≤ 10 |  | ≤ 100 |  |  |  |  | 100 to 500 |  |  | C=CC(=O)N1CC[C@H](C/C=C/c2ccc(C(F)(F)F)cc2)C1 [Example 85] | A (A ≥ 75%) |  | B (75% > B ≥ 50%) |  | B (75% > B ≥ 50%)
